Assay results published in patent US20150182605A1, “Ultra-Low Dose Lysostaphin for Treating MRSA” (priority 2013, published 2015).

Key:
[1] = tested on: SA5; test: % T lysis assay of SA5 in 96-well configuration; type: cell-based, Staphylococcus aureus; conditions: 0.1 μg/ml; for change in % T / killing: neat solution of SA5, 10 minutes at 37° C. (FIG. 4)
Description: A second assay was performed in which the SA5 and lysostaphin were tested in a 96-well configuration. For this assay, 100 μl of the SA5 solution was added to wells followed by 100 μl of the lysostaphin solution. % T was obtained at TO and the plate incubated at 37° C. for 10 minutes with gentle rotation. The % T was obtained and the results compared.

[2] = tested on: anti-lysostaphin antibodies; test: Assay of mouse sera on lysostaphin-coated plates after immunization; type: binding; conditions: gamma-specific detection, compared with the other lysostaphin as coating antigen, regardless of the immunogen
Description: Assay of mouse sera on plates coated with lysostaphin from simulans expressed as recombinant in E coli and coated with natural lysostaphin from S. staphylolyticus. Mice received a primary immunization (subcutaneous) with 10 μg recombinant lysostaphin from E. coli (Sigma-Aldrich) (animal numbers 8603, 8604) or 10 μg of natural lysostaphin from S. staphylolyticus (Sigma-Aldrich) (animal numbers 8621-8623). Primary immunization was administered and boosted about three weeks later. No adjuvant was used for the immunizations. Serum samples were tested using gamma-specific detection (FIGS. 1 and 2). Bars represent binding seen with normal serum (first bar), serum after the first injection (second bar), and serum after the boost injection three weeks later (third and in most cases largest bar). The results on wells coated with simulans lysostaphin (FIG. 1) were stronger than the results on wells coated with staphylolyticus lysostaphin (FIG. 2), regardless of the immunogen. Mouse 8621 was poorly reactive on both coating antigens. Note that each graph is scaled to 1.500 on the y-axis for comparison purposes.

[3] = tested on: S. aureus cells; conditions: from COA; cited from earlier work
[4] = tested on: S. aureus type 5 (ATCC 49521); test: % T (turbidity) lysis assay of S. aureus type 5 suspension in tubes; type: cell-based, Staphylococcus aureus; conditions: 10 minutes at 37° C.
Description: 50 μl of S. aureus type 5 (ATCC 49521) was plated onto blood agar plates and incubated overnight. The resulting bacterial lawn was transferred to 30 mls of TSB (tryptic soy broth; Remel cat 112740) and incubated at 37° C. for about 60 minutes at 225 rpm. The percent transmission (% T) of the bacterial suspension following incubation was about 7%. The % T was adjusted to 53% by addition of 100 μl of bacterial suspension to 4500 μl of TSB (in five individual tubes) and the % T was measured in each tube. An additional tube contained TSB alone. Tube #1 received no lysostaphin. Tube #2 was designated to receive 550 μl of recombinant lysostaphin, but the lysostaphin was erroneously added to Tube #3, and thus, Tube #2 was discarded. Tube #3 received 550 μl recombinant lysostaphin (from a 2,000 μg/ml stock solution) for a final concentration of about 220 μg/ml (this tube erroneously received lysostaphin dose intended for tube #2 (i.e. 500 μl of lysostaphin stock) plus the 50 μl of lysostaphin originally intended for this tube. Tube #4 received 500 μl of natural lysostaphin from S. staphylolyticus (from a 2,000 μg/ml stock solution) for a final concentration of about 200 μg/ml. Tube #5 received 50 μl of natural lysostaphin from S. staphylolyticus (from a 2,000 μg/ml stock solution) for a final concentration of about 20 μg/ml. The tubes were vortexed, incubated at 37° C. for 10 minutes at 150 rpm and the % T for each determined (see FIG. 3 which is summarized in Table 2). An increase in the % T indicates killing of bacteria. Both lysostaphins were highly likely active against this SA5.

[5] = tested on: S. aureus cells; test: Enzymatic activity per certificate of analysis (COA); type: biochemical, Staphylococcus aureus; conditions: from COAs of both products
Description: Doses may also be as international units. One international unit (IU) is about 3.1 μg and will reduce the turbidity (A620) of a suspension of S. aureus cells from 0.250 to 0.125 in 10 minutes at pH 7.5 at 37° C. in a 6.0 ml reaction mixture.

[6] = tested on: SA5 (ATCC 49521); test: Effect of antibiotics and lysostaphin on growth of SA5 (% T, 96-well); type: cell-based, Staphylococcus aureus; conditions: for inhibition and killing of the staph by antibiotic alone: antibiotic alone at 25 or 12.5 mg/ml, 5 and 22 hours
Description: It was determined whether low levels of lysostaphin would act synergistically with Nafcillin or Oxacillin to kill an SA5 (ATCC 49521). The study was performed in a 96-well dish to allow titration of lysostaphin and antibiotics. The end point was % T. Plating of bacteria from the assay plate was not done.
Fifty μl of SA5 (ATCC 49521) was reconstituted from a frozen stock and grown overnight on a blood agar plate at 37° C. Bacteria were transferred from the blood agar plate (approximately 25% of the lawn) into 30 mls of TSB and grown for 2 hours at 37° C. on a rotating shaker set at 250 rpm. […] A 1:4 dilution of this suspension in TSB gave a % T of ˜50% in a 96 well dish.
For the assay, lysostaphin (Sigma Cat L7386; lot 063M4011V; 3387.5 units/ml stock in water) was diluted in three-fold dilutions (in TSB) from 3 units/ml (row A) to 0.0123 units/ml (row G) in 50 μl/well. The wells in row H received TSB alone. This plate was designated the assay plate. In a separate 96-well plate (i.e. the dilution plate), Nafcillin (Sigma Cat N3269; lot SLBF8230V, 50 mg/ml in water) was diluted in TSB to 25 mg/ml and a second dilution of 12.5 mg/ml was also prepared (columns 1 and 2 of the dilution plate). Oxacillin (Sigma Cat 01002; lot SLBC9948V; 50 mg/ml in water) was diluted to 25 mg/ml in TSB and a second dilution of 12.5 mg/ml was also prepared (columns 4 and 5 of the dilution plate).
Fifty μl of the antibiotic solutions were transferred to the corresponding wells of the assay plate containing the lysostaphin solution. 50 μl of TSB alone was transferred to columns 3 and 6 (i.e. no antibiotic controls) of the assay plate. The combination of antibiotics and lysostaphin yielded a volume of 100 μl. 125 μl of S. aureus 49521, diluted 1:2 in TSB was then added to all wells of the plate, except wells H1, H2, H4 and H5, which served as the blank well for determining the % T. After addition of the bacteria, and between each determination of the % T, the plate was incubated at 37° C. with gentle rotation (˜50 rpm). The % T was then determined at 2 and 15 minutes after addition of the bacteria, and again at 5 hours and 22 hours after addition of the bacteria.

## recombinant lysostaphin: lysostaphin from simulans expressed as recombinant in E. coli (Sigma-Aldrich)
[1]
  change in % T / killing: remained strong
[2]
  binding of mouse serum antibodies to the coated lysostaphin: markedly higher binding
[2]; listed as simulans lysostaphin
  binding of mouse serum antibodies to the coated lysostaphin: stronger
[3]
  enzymatic activity: greater than 3,000 units per mg
[4]; 220 μg/ml, tube 3, increase in % T indicates killing
  Ending % T: 94.0 % T
[5]
  activity relative to natural lysostaphin: 6-7 fold

## lysostaphin: lysostaphin (Sigma Cat L7386; lot 063M4011V; 3387.5 units/ml stock in water); 27 kD glycylglycine endopeptidase
[6]; lysostaphin 0.0123 units/ml with Nafcillin or Oxacillin, 5 to 22 hours
  synergy of lysostaphin with the antibiotics: acted synergistically
[6]; lysostaphin 0.0123 units/ml without antibiotic, 5 hours, FIG. 8
  % T: 97.0 % T
[6]; lysostaphin 0.0123 units/ml without antibiotic, 5 hours, FIG. 11
  % T: 98.0 % T
[6]; lysostaphin 0.0123 units/ml without antibiotic, 22 hours, FIG. 8
  % T: 75.4 % T
[6]; lysostaphin 0.0123 units/ml without antibiotic, 22 hours, FIG. 11
  % T: 60.2 % T
[6]; lysostaphin 0.0123 units/ml, within 5 hours
  % T: > 95 % T
[6]; lysostaphin at concentrations higher than 0.0123 units/ml, at 5 (not shown)
  % T: > 95%
[6]; most concentrations of lysostaphin, without antibiotics, after 22 hours
  % T: below 70%

## natural lysostaphin: natural lysostaphin from S. staphylolyticus (Sigma-Aldrich)
[1]; SA5 at a dilution of 1:2 vs neat SA5 (FIG. 5)
  change in % T: greater change
[1]
  change in % T / killing: increased only slightly
[4]; 20 μg/ml, tube 5
  Ending % T: 95.0 % T
[4]; 200 μg/ml, tube 4
  Ending % T: 94.6 % T

## Cc1onc(-c2ccccc2)c1C(=O)N[C@@H]1C(=O)N2[C@@H]1SC(C)(C)[C@@H]2C(=O)O [Oxacillin, reference compound]
[6]
  inhibition and killing of the staph by antibiotic alone: ineffective rapid inhibition and killing

## CCOc1ccc2ccccc2c1C(=O)N[C@@H]1C(=O)N2[C@@H]1SC(C)(C)[C@@H]2C(=O)O [Nafcillin, reference compound]
[6]
  inhibition and killing of the staph by antibiotic alone: ineffective rapid inhibition and killing
